The test relates to β-catenin-TCF-mediated reporter transcription activity in Colo 205 cells. The test is described as follows: Colo 205 reporter assay (TCF/LEF luciferase). Particulars: Homo sapiens, Colo 205 TCF/LEF luciferase reporter, five hours after addition of compound, read-out: TCF reporter Colo205 IC50. It counts as cell-based. Summed up: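 Luciferase signal from a TCF/LEF-driven reporter, stably integrated in Colo 205 colon cancer cells, was measured 5 h after compound addition.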
Background: Reporter assays use an easily measured gene product as a stand-in for the process of interest.

Read-outs that look alike come from different tables or passages of the source.

In the case of `Cc1nc(N[C@H]2C[C@H](NC(=O)Oc3ccc(F)cc3)C2)nc2c1NC(=O)[C@H](C)N2C` [Compound 465, 4-fluorophenyl (trans-3-(((S)-4,7,8-trimethyl-6-oxo-5,6,7,8-tetrahydropteridin-2-yl)amino)cyclobutyl)carbamate], the IC50 (commonly the concentration needed to halve the response being measured) (5 h) is 300 to 1000 nM. Regarding `Cc1nc(NCc2cnn(Cc3ccc(OC(F)(F)F)cc3)c2)nc2c1NC(=O)[C@H](C(C)C)N2C` [Compound 467, (S)-7-isopropyl-4,8-dimethyl-2-(((1-(4-(trifluoromethoxy)benzyl)-1H-pyrazol-4-yl)methyl)amino)-7,8-dihydropteridin-6(5H)-one], the concentration for half-maximal inhibition (IC50) (COLO 205, 5 h) was less than 300 nM. As to `Cc1nc(NCc2cnn(-c3ccc(C(F)(F)F)nc3)c2)nc2c1NC(=O)[C@H](C)N2C` [Compound 468, (S)-4,7,8-trimethyl-2-(((1-(6-(trifluoromethyl)pyridin-3-yl)-1H-pyrazol-4-yl)methyl)amino)-7,8-dihydropteridin-6(5H)-one], where the note is “COLO 205, 5 h”, the half-maximal inhibitory concentration (IC50) is less than 300 nM.

As to `Cc1nc(NCc2cnn(Cc3ccc(C(C)(C)C)nc3)c2)nc2c1NC(=O)[C@H](C(C)C)N2C` [Compound 469, (S)-2-(((1-((6-(tert-butyl)pyridin-3-yl)methyl)-1H-pyrazol-4-yl)methyl)amino)-7-isopropyl-4,8-dimethyl-7,8-dihydropteridin-6(5H)-one], where the note is “COLO 205, 5 h”, the IC50 was less than 300 nM. `Cc1nc(NCc2cnn(Cc3ccc(C(C)(C)C#N)nc3)c2)nc2c1NC(=O)[C@H](C(C)C)N2C` [Compound 470, (S)-2-(5-((4-(((7-isopropyl-4,8-dimethyl-6-oxo-5,6,7,8-tetrahydropteridin-2-yl)amino)methyl)-1H-pyrazol-1-yl)methyl)pyridin-2-yl)-2-methylpropanenitrile]: the IC50 (COLO 205, 5 h) is less than 300 nM. Same read-out and setting: with `Cc1nc(N[C@H]2C[C@H](NC(=O)Nc3ccc(C(F)(F)F)nc3)C2)nc2c1NC(=O)[C@H](C)N2C` [Compound 471, 1-(6-(trifluoromethyl)pyridin-3-yl)-3-(trans-3-(((S)-4,7,8-trimethyl-6-oxo-5,6,7,8-tetrahydropteridin-2-yl)amino)cyclobutyl)urea] the figure was no less than 5000 nM; with `Cc1nc(N[C@H]2C[C@@H](NC(=O)Nc3cc(F)c(F)c(F)c3)C2)nc2c1NC(=O)[C@H](C)N2C` [Compound 472, 1-(3,4,5-trifluorophenyl)-3-(cis-3-(((S)-4,7,8-trimethyl-6-oxo-5,6,7,8-tetrahydropteridin-2-yl)amino)cyclobutyl)urea], less than 300 nM. The same measure, in the same setting: with `Cc1nc(N[C@H]2C[C@@H](NC(=O)Nc3ccc(C(F)(F)F)nc3)C2)nc2c1NC(=O)[C@H](C)N2C` [Compound 473, 1-(6-(trifluoromethyl)pyridin-3-yl)-3-(cis-3-(((S)-4,7,8-trimethyl-6-oxo-5,6,7,8-tetrahydropteridin-2-yl)amino)cyclobutyl)urea] the figure was less than 300 nM; with `Cc1nc(N[C@H]2C[C@H](NC(=O)Nc3cc(F)c(F)c(F)c3)C2)nc2c1NC(=O)[C@H](C)N2C` [Compound 474, 1-(3,4,5-trifluorophenyl)-3-(trans-3-(((S)-4,7,8-trimethyl-6-oxo-5,6,7,8-tetrahydropteridin-2-yl)amino)cyclobutyl)urea], 1000 to 5000 nM. Take `Cc1nc(N[C@H]2C[C@@H](NC(=O)c3cc(F)c(F)c(F)c3)C2)nc2c1NC(=O)[C@H](C)N2C` [Compound 475, 3,4,5-trifluoro-N-(cis-3-(((S)-4,7,8-trimethyl-6-oxo-5,6,7,8-tetrahydropteridin-2-yl)amino)cyclobutyl)benzamide]: the half-inhibitory concentration (IC50) (COLO 205, 5 h) lay in the range of 1000 to 5000 nM. Same read-out and setting: with `Cc1nc(N[C@H]2C[C@H](NC(=O)c3cc(F)c(F)c(F)c3)C2)nc2c1NC(=O)[C@H](C)N2C` [Compound 476, 3,4,5-trifluoro-N-(trans-3-(((S)-4,7,8-trimethyl-6-oxo-5,6,7,8-tetrahydropteridin-2-yl)amino)cyclobutyl)benzamide] the figure was 1000 to 5000 nM; with `Cc1nc(N[C@H]2C[C@@H](NC(=O)Nc3cc(F)c(F)cc3F)C2)nc2c1NC(=O)[C@H](C)N2C` [Compound 477, 1-(2,4,5-trifluorophenyl)-3-(cis-3-(((S)-4,7,8-trimethyl-6-oxo-5,6,7,8-tetrahydropteridin-2-yl)amino)cyclobutyl)urea], less than 300 nM. On the same count and under the same terms, with `Cc1nc(N[C@H]2C[C@H](NC(=O)Nc3cc(F)c(F)cc3F)C2)nc2c1NC(=O)[C@H](C)N2C` [Compound 478, 1-(2,4,5-trifluorophenyl)-3-(trans-3-(((S)-4,7,8-trimethyl-6-oxo-5,6,7,8-tetrahydropteridin-2-yl)amino)cyclobutyl)urea] the figure was 1000 to 5000 nM; with `Cc1nc(NCc2cnn(Cc3ccc(F)cc3)c2)nc2c1NC(=O)[C@H](C(C)C)N2C` [Compound 479, (S)-2-(((1-(4-fluorobenzyl)-1H-pyrazol-4-yl)methyl)amino)-7-isopropyl-4,8-dimethyl-7,8-dihydropteridin-6(5H)-one], less than 300 nM; with `C=C(C)c1ccc(Cn2cc(CNc3nc(C)c4c(n3)N(C)[C@@H](C(C)C)C(=O)N4)cn2)cn1` [Compound 480, (S)-7-isopropyl-4,8-dimethyl-2-(((1-((6-(prop-1-en-2-yl)pyridin-3-yl)methyl)-1H-pyrazol-4-yl)methyl)amino)-7,8-dihydropteridin-6(5H)-one], less than 300 nM.

On to `Cc1nc(N[C@H]2C[C@@H](NS(=O)(=O)c3cc(F)c(F)c(F)c3)C2)nc2c1NC(=O)[C@H](C)N2C` [Compound 481, 3,4,5-trifluoro-N-(cis-3-(((S)-4,7,8-trimethyl-6-oxo-5,6,7,8-tetrahydropteridin-2-yl)amino)cyclobutyl)benzenesulfonamide], for which the IC50 (COLO 205, 5 h) is 300 to 1000 nM. On the same count and under the same terms, with `Cc1nc(N[C@H]2C[C@H](NS(=O)(=O)c3cc(F)c(F)c(F)c3)C2)nc2c1NC(=O)[C@H](C)N2C` [Compound 482, 3,4,5-trifluoro-N-(trans-3-(((S)-4,7,8-trimethyl-6-oxo-5,6,7,8-tetrahydropteridin-2-yl)amino)cyclobutyl)benzenesulfonamide] the figure was no less than 5000 nM. In the case of `Cc1nc(N[C@H]2C[C@H](NC(=O)Oc3cc(F)c(F)c(F)c3)C2)nc2c1NC(=O)[C@H](C)N2C` [Compound 483, 3,4,5-trifluorophenyl (trans-3-(((S)-4,7,8-trimethyl-6-oxo-5,6,7,8-tetrahydropteridin-2-yl)amino)cyclobutyl)carbamate], the IC50 (5 h) lay within 1000 to 5000 nM. The same measure, in the same setting: to `Cc1nc(N[C@H]2C[C@@H](NC(=O)Oc3cc(F)c(F)c(F)c3)C2)nc2c1NC(=O)[C@H](C)N2C` [Compound 484, 3,4,5-trifluorophenyl (cis-3-(((S)-4,7,8-trimethyl-6-oxo-5,6,7,8-tetrahydropteridin-2-yl)amino)cyclobutyl)carbamate] belongs 1000 to 5000 nM. `Cc1nc(N[C@H]2C[C@@H](Nc3cc(F)c(F)c(F)c3)C2)nc2c1NC(=O)[C@H](C)N2C` [Compound 485, (S)-4,7,8-trimethyl-2-((cis-3-((3,4,5-trifluorophenyl)amino)cyclobutyl)amino)-7,8-dihydropteridin-6(5H)-one]: the IC50 (COLO 205, 5 h) was less than 300 nM.

Consider `Cc1nc(N[C@H]2C[C@H](Nc3cc(F)c(F)c(F)c3)C2)nc2c1NC(=O)[C@H](C)N2C` [Compound 486, (S)-4,7,8-trimethyl-2-((trans-3-((3,4,5-trifluorophenyl)amino)cyclobutyl)amino)-7,8-dihydropteridin-6(5H)-one], for which the 50% inhibitory concentration (IC50) (COLO 205, 5 h) was 1000 to 5000 nM. Still for that read-out and setting: to `C[C@H]1C(=O)Nc2c(CO)nc(NCc3cnn(Cc4ccc(C(F)(F)F)nc4)c3)nc2N1C` [Compound 487, (7S)-4-(hydroxymethyl)-7,8-dimethyl-2-(((1-((6-(trifluoromethyl)pyridin-3-yl)methyl)-1H-pyrazol-4-yl)methyl)amino)-7,8-dihydropteridin-6(5H)-one] belongs 300 to 1000 nM; to `COc1c(F)cc(Cn2cnc(CNc3nc(C)c4c(n3)N(C)[C@@H](C(C)C)C(=O)N4)n2)cc1F` [Compound 488, (S)-2-(((1-(3,5-difluoro-4-methoxybenzyl)-1H-1,2,4-triazol-3-yl)methyl)amino)-7-isopropyl-4,8-dimethyl-7,8-dihydropteridin-6(5H)-one], 1000 to 5000 nM; to `Cc1nc(NCc2ncn(Cc3ccc(OC(F)(F)F)cc3)n2)nc2c1NC(=O)[C@H](C(C)C)N2C` [Compound 489, (S)-7-isopropyl-4,8-dimethyl-2-(((1-(4-(trifluoromethoxy)benzyl)-1H-1,2,4-triazol-3-yl)methyl)amino)-7,8-dihydropteridin-6(5H)-one], no less than 5000 nM. Same read-out and setting: with `Cc1nc(NCc2ncn(Cc3cc(F)c(F)c(F)c3)n2)nc2c1NC(=O)[C@H](C(C)C)N2C` [Compound 490, (S)-7-isopropyl-4,8-dimethyl-2-(((1-(3,4,5-trifluorobenzyl)-1H-1,2,4-triazol-3-yl)methyl)amino)-7,8-dihydropteridin-6(5H)-one] the figure was no less than 5000 nM; with `Cc1nc(NCc2cnn(CCCc3ccc(C(F)(F)F)nc3)c2)nc2c1NC(=O)[C@H](C)N2C` [Compound 492, (S)-4,7,8-trimethyl-2-(((1-(3-(6-(trifluoromethyl)pyridin-3-yl)propyl)-1H-pyrazol-4-yl)methyl)amino)-7,8-dihydropteridin-6(5H)-one], 300 to 1000 nM; with `[2H]C([2H])(O)c1nc(NCc2cnn(Cc3ccc(C(F)(F)F)nc3)c2)nc2c1NC(=O)[C@H](C)N2C` [Compound 493, (7S)-4-(hydroxymethyl-d2)-7,8-dimethyl-2-(((1-((6-(trifluoromethyl)pyridin-3-yl)methyl)-1H-pyrazol-4-yl)methyl)amino)-7,8-dihydropteridin-6(5H)-one], 1000 to 5000 nM. Same read-out and setting: to `[2H]C([2H])([2H])c1nc(NCc2cnn(Cc3ccc(C(F)(F)F)nc3)c2)nc2c1NC(=O)[C@H](C)N2C` [Compound 494, (7S)-7,8-dimethyl-4-(methyl-d3)-2-(((1-((6-(trifluoromethyl)pyridin-3-yl)methyl)-1H-pyrazol-4-yl)methyl)amino)-7,8-dihydropteridin-6(5H)-one] belongs less than 300 nM.
